The text below walks through data of US9326955B2, “Combination pharmaceuticals and methods thereof using proteinacious channels as treatments for medical conditions” (Loyola University Chicago, priority 2008, dated 2016).

The EC50 is the midpoint of the concentration-response curve.

Entries after “also recorded” stand apart in the source; their conditions may differ. Like-named read-outs stand apart in the source and are kept apart here.

Series [1] addresses vascular L-type Ca^2+ channels (Homo sapiens, UniProt Q13936). The following applies: vascular smooth muscle cells.
Description: The activities were measured for two types of ion channels that are perhaps the most important in determining the contractile state of vascular smooth muscle cells: potassium (K^+) channels, which determine the resting membrane voltage, and voltage-sensitive calcium (Ca^2+) channels (VSCC), the activation of which allows Ca^2+ influx and vasoconstriction. […] The actions of these drugs can be assessed at the level of isolated arterial myocytes and intact pressurized arteries.
The next series deals with vascular Kv7 channels. The series is described as follows: Electrophysiology of Kv7 currents in vascular smooth muscle cells. The class given is cell-based, rat and human. As to conditions: for effect on vascular Kv7 channels: vascular smooth muscle cells. Here is the method:
The scope of the present invention further encompasses the tools used to measure vascular Kv7 channel activities and/or functional contributions of these channels in vascular smooth muscle cells. […] For example, flupirtine is a known Kv7 channel activator used to treat pain; plasma concentrations achieved clinically can be as high as about 12 μM with a 100 mg dose (Abrams et al., “Pharmacokinetics of flupirtine in elderly volunteers and in patients with moderate renal impairment,” Postgraduate Medical Journal, 64: 361-363 (1988)) and doses up to about 600 mg are routinely given to treat chronic pain. […] Further indications to support such predictions may be obtained by measuring the effects of drugs on constriction/dilation of pressurized arteries.

Series [2] relates to rat bronchioles in precision-cut lung slices (PCLS). The series is described as follows: Airway constriction/relaxation in rat precision-cut lung slices (PCLS). The following applies: for bronchorelaxant action when XE991 is included: with XE991 10 μM. Here is the method:
Another investigation was performed to investigate the ability of KCNQ channel activators to attenuate MeCh-induced concentration-dependent constriction of rat bronchioles in precision-cut lung slices (PCLS). The PCLS were prepared using methods described by Brueggemann et al., “KCNQ (Kv7) potassium channel activators as bronchodilators: combination with a β2-adrenergic agonist enhances relaxation of rat airways,” Am J Physiol Lung Cell Mol Physiol (in press). PCLS were superfused with increasing concentrations of MeCh in the range from 100 nM to 1 μM. Each concentration was applied for thirty minutes, followed by a forty-five minute washout prior to application of the next MeCh concentration (FIG. 12A,B). […] Percent of airway constriction, relative to the cross-sectional area measured before the initial MeCh treatment, was calculated for each MeCh concentration and plotted against concentration of MeCh.
Bronchorelaxant effects were further assessed by measuring the extent of bronchoconstriction when MeCh was applied in the absence or presence of different structurally unrelated KCNQ channel activators (or vehicle).
FIG. 13C is a representative time course of changes in lumenal area of a small airway in rat PCLS on application of 230 nM MeCh (thirty minutes) followed by application of 230 nM MeCh in the presence of 10 nM formoterol (FF, thirty minutes). Dashed vertical lines marked “max” and “final” indicate 1 minute time intervals where the maximum or final relaxation was measured relative to the MeCh-induced constriction (measured during the last minute of MeCh alone). FIG. 13D is a representative time course of changes in lumenal area of a small airway treated as in panel C, except that 10 μM retigabine was included with the formoterol treatment (“FF+R,” thirty minutes).
The amount of desensitization for each concentration of formoterol in the absence and presence of 10 μM retigabine was estimated by subtraction of final relaxation (after thirty-minute treatment) from maximal relaxation.
To further investigate the desensitization to formoterol in rat PCLS, formoterol (10 nM) was applied twice, at a 90 minute interval, to airways constricted repetitively with 230 nM MeCh.

In a further series the test system is KCNQ channels. The series is described as follows: Patch-clamp of KCNQ currents in rat airway myocytes (ASMCs). The class given is cell-based. Here is the method:
An investigation relating to these aspects of the invention was conducted to determine whether KCNQ (Kv7) K^+ channels are expressed and functional in rat airway myocytes. To accomplish this, a combination of real time polymerase chain reaction (RT-PCR) and patch-clamp electrophysiology was used. Isolation of rat ASMCs from bronchial strips for the patch-clamp electrophysiology as well as RNA isolation from rat trachea for the RT-PCR were performed using methods as described in Brueggemann et al., “KCNQ (Kv7) potassium channel activators as bronchodilators: combination with a β2-adrenergic agonist enhances relaxation of rat airways,” Am J Physiol Lung Cell Mol Physiol (in press), incorporated herein by reference.
Therefore K^+ currents in enzymatically dispersed rat airway myocytes were measured using patch-clamp electrophysiology.
After 10 minutes of MeCh treatment, the time course recording was interrupted for 10 minutes for measurement of steady-state I-V relationship (time break indicated by vertical gray lines). Then, after an additional one minute recording at −20 mV holding voltage, retigabine (10 μM) was applied in the presence of MeCh for 5 minutes. The time course recording was interrupted again for ten minutes for measurement of steady-state I-V relationship and, after an additional one minute time course recording, XE991 (1 μM) was applied in the presence of MeCh and retigabine for ten minutes.
The investigation examined whether the bronchorelaxant effects of long-acting β2-adrenergic receptor agonist, formoterol, were mediated via activation of KCNQ channels in rat airway myocytes. […] The time course recording was interrupted for 10 minutes for measurement of steady-state I-V relationship (time break indicated by vertical gray lines). After an additional 5 minutes recording, retigabine (10 μM) was applied in the continued presence of formoterol. The time course recording was interrupted again for 10 minutes for recording of steady-state I-V curves, and, after an additional 5 minutes recording, XE991 (1 μM) was applied in the presence of retigabine.

For series [3] the following is noted: compared with celecoxib; cited from earlier work.
In the next series the test system is Kv7 channels. The series is described as follows: Perforated patch clamp of Kv7 currents in freshly isolated guinea pig ASMCs. The class given is cell-based. Background: The patch-clamp technique gives a direct electrical read-out from membranes.
For series [4] the following is noted: randomized clinical trials / clinical studies; cited from earlier work.
For series [5] the following is noted: 100 mg dose; cited from earlier work.
The next series has as its system human PCLS. The series is described as follows: Airway relaxation in human PCLS from an asthmatic lung. The following applies: 30 pM alone, thirty-minute treatment (H1+F).
A further series deals with Sprague-Dawley rats. The series is described as follows: Mean arterial pressure and mesenteric vascular resistance in anesthetized instrumented rats. It counts as in vivo, rat.
Series [6] has as its system ovalbumin-sensitized guinea pigs. The series is described as follows: Aerosolized ovalbumin challenge with inhaled retigabine in guinea pigs. The following applies: thirty-minute exposure with ovalbumin, doses up to 1 mM.
Description: To assess the feasibility of inhalational therapy with a Kv7 channel activator, an investigation was conducted to assess the ability of retigabine to exert a therapeutic anti-bronchospastic benefit in vivo. […] This model involves a series of three intraperitoneal injections of ovalbumin (OA) or saline (as control) over a one week period, followed by a two-week sensitization period, and finally challenge with aerosolized ovalbumin.
In the investigation, two saline-control and two ovalbumin-sensitized animals were exposed to aerosolized ovalbumin on three consecutive days, but in this case the ovalbumin treatment was administered with varying doses of retigabine on consecutive days.
The mark [7] stands for this setting: 10 nM, 230 nM MeCh (FIG. 14A,C).
Where [8] appears, read: 10 nM, 90 minute interval (FIG. 14A,C).
Where [9] appears, read: formoterol 10 nM alone (FIG. 14B,D).

Chain of vascular L-type Ca^2+ channels (Q13936 whole entry): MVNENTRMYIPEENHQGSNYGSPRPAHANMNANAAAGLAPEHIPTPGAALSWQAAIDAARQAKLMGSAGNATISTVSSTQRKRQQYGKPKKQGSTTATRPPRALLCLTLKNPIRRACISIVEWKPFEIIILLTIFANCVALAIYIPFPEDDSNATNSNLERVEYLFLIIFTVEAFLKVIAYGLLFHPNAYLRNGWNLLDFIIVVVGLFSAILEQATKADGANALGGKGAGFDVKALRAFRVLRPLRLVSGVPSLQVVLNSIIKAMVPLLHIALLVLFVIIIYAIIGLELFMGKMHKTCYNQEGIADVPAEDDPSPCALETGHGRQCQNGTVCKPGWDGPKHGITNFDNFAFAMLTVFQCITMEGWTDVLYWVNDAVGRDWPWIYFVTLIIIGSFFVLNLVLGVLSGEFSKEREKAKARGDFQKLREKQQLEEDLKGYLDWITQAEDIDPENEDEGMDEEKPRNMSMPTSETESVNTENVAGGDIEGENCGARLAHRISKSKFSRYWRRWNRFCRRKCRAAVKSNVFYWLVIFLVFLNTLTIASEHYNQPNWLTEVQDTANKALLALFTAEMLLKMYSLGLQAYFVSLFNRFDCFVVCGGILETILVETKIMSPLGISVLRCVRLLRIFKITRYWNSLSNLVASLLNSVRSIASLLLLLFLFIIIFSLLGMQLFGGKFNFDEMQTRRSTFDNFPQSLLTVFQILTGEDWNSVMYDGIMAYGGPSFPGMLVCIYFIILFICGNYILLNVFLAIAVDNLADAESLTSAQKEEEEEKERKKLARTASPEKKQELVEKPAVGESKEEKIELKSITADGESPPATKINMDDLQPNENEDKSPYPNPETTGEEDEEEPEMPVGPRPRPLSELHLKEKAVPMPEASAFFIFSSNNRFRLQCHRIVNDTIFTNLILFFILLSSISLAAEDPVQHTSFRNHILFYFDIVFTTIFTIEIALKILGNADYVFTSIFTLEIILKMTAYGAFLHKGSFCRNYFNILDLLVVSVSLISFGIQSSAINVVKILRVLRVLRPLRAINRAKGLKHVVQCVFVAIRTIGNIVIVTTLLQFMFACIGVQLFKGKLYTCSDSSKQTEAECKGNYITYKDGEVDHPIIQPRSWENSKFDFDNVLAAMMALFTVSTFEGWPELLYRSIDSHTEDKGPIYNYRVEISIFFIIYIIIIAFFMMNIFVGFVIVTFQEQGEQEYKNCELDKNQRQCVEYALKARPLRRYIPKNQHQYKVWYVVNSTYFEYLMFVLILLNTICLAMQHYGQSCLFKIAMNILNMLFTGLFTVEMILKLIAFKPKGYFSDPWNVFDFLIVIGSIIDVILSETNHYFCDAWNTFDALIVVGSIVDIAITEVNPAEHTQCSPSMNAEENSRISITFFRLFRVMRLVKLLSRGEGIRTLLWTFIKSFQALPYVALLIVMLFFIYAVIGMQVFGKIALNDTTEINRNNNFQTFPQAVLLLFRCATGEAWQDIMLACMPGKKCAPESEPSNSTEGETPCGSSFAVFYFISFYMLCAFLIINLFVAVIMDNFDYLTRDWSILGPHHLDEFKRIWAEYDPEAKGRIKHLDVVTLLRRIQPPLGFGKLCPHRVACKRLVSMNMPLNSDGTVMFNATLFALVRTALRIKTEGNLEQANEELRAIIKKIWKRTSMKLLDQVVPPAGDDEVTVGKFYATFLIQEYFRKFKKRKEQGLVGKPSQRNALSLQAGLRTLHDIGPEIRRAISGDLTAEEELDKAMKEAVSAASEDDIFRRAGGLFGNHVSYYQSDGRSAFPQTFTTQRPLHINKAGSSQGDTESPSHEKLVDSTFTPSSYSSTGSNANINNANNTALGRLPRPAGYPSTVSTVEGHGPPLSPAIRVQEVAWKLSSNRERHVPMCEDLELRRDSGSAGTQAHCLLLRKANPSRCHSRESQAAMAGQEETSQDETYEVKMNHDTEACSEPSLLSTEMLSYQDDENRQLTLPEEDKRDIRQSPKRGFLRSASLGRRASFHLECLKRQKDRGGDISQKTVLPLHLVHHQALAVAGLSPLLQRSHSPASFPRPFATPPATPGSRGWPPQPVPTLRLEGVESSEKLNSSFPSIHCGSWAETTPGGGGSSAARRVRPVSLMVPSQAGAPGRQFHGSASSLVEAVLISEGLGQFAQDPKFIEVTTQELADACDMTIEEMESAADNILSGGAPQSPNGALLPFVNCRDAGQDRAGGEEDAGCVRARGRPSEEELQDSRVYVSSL
Chain of vascular L-type Ca^2+ channels (P54284 whole entry partner): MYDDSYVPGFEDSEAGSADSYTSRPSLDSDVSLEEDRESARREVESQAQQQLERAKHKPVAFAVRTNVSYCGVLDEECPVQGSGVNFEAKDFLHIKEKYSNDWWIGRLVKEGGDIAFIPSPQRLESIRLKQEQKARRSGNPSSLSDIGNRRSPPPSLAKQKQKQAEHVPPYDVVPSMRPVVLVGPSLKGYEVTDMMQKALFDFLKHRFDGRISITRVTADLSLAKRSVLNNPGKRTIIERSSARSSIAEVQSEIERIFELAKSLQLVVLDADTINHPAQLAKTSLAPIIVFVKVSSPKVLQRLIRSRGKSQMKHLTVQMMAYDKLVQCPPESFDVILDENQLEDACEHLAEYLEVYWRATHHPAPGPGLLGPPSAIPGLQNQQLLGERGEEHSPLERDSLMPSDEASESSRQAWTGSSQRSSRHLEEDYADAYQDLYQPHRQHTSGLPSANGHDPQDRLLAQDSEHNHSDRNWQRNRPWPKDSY
Chain of vascular L-type Ca^2+ channels (P54289 25-956 partner limits assumed): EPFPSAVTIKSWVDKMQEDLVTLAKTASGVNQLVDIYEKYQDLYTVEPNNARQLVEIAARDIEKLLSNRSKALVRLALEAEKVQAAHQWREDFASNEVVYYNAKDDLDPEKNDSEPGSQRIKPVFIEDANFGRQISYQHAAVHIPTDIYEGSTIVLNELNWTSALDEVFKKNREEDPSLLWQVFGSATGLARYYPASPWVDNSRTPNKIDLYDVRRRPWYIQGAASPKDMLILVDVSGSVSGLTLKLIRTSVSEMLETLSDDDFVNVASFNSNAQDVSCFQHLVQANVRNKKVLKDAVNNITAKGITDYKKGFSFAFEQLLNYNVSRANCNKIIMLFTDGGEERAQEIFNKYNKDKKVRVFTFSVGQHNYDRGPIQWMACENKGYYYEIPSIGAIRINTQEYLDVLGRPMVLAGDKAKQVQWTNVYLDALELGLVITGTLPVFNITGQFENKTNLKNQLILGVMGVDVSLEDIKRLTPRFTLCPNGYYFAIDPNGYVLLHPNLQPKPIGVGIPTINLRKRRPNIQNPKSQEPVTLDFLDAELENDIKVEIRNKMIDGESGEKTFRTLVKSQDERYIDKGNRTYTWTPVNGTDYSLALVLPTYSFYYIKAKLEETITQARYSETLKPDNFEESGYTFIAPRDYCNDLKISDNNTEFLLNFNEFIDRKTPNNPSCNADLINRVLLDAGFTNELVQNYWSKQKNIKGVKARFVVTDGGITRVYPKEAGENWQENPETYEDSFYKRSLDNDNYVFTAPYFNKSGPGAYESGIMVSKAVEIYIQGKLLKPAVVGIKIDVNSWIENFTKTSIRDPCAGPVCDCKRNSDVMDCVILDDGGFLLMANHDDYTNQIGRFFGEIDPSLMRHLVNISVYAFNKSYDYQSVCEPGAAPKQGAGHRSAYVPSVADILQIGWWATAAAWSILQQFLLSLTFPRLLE
Chain of vascular L-type Ca^2+ channels (P54289 957-1103 partner limits assumed): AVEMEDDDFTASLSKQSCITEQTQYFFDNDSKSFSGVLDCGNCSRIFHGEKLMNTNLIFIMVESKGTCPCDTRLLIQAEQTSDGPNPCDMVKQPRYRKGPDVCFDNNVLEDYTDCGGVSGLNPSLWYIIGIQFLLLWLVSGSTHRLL
Excerpt for human PCLS: FIG. 15A is a representative recording of airway area from a PCLS derived from an asthmatic human lung.

As to `Cc1ccc(C)c(-c2cc(C(F)(F)F)nn2-c2ccc(S(N)(=O)=O)cc2)c1` [2,5-dimethyl-celecoxib], the “effect on vascular L-type Ca^2+ channels” value in series [1] is on record as “inhibitor”. For the same compound, the “effect on vascular Kv7 channels” value in the series with vascular Kv7 channels is given as “potent activator”. The “reduction of MeCh-induced airway constriction” value in series [2] (10 μM, 230 nM MeCh) is 23%. For the same compound, the “bronchorelaxant action when XE991 is included” value in series [2] is given as “not significantly reduced”. Also, in the series with KCNQ channels (rat ASMCs, 10 μM), the “effect on KCNQ currents at −20 mV holding voltage” value (“effect … at −20 mV holding voltage” below) was “effective as an activator”. Also, the anti-cancer activity entry in series [3] was “stronger anti-cancer activity than celecoxib itself”.
Regarding `O=C1c2ccccc2C(Cc2ccncc2)(Cc2ccncc2)c2ccccc21` [XE991], the “effect on ASMC Kv7 currents” value in the series on Kv7 channels (celecoxib 10 μM at −20 mV) is listed as “complete suppression”. In addition, the “effect on KCNQ currents in the presence of retigabine” value with KCNQ channels (1 μM, subsequent application after retigabine (with MeCh or formoterol)) is listed as “completely abolished; also recorded: effectively abolished”. In the series with KCNQ channels (rat ASMCs, 10 μM), the “effect … at −20 mV holding voltage” value is given as “inhibited”.
`Cc1ccc(-c2cc(C(F)(F)F)nn2-c2ccc(S(N)(=O)=O)cc2)cc1` [celecoxib]: in series [4], the “risk of cardiovascular (CV) events” value is recorded as “failed to demonstrate an increased CV risk”.
As for `O=C(O)Cc1ccccc1Nc1c(Cl)cccc1Cl` [diclofenac], in the series with vascular Kv7 channels, the “effect on vascular Kv7 channels” value is “pronounced effects”. Further, the “risk of cardiovascular (CV) events” value in [4] was “significantly increased the risk of cardiovascular (CV) events”.
Turning to `CCOC(=O)Nc1ccc(NCc2ccc(F)cc2)nc1N` [flupirtine], the “increase of vascular Kv7 current” value with vascular Kv7 channels (10 μM) was 100%. The “plasma concentration achieved clinically” value in series [5] was “about 12 μM”.
In the case of `COc1ccc(C[C@@H](C)NC[C@H](O)c2ccc(O)c(NC=O)c2)cc1.COc1ccc(C[C@@H](C)NC[C@H](O)c2ccc(O)c(NC=O)c2)cc1.O=C(O)/C=C/C(=O)O` [formoterol, formoterol fumarate], the “relaxation of histamine-constricted asthmatic human airway” value with human PCLS amounted to 18%. For the same compound, in series [2] (setting [7]), the “final relaxation after thirty minutes, first application” value is on record as 46±14% and the “peak relaxation, first application” value came to 68±10%. In series [2] (setting [8]), the “final relaxation, second application” value came out at 32±6% and the “peak relaxation, second application” value came to 48±8%. Besides, the “maximum relaxation of airways constricted with MeCh” value in series [2] (at 1 μM, 230 nM MeCh) amounted to 72±5%. For the same compound, the “time course of relaxation response” value in [2] (concentrations greater than or equal to 10 nM) is recorded as “noticeable time-dependent decline in the relaxation response”. For the same compound, in [2] (setting [9]), the “final relaxation, acute exposure of the same slices” value is 34±6% and the “peak relaxation, acute exposure of the same slices” value worked out at 59±4%. Further, in the series on KCNQ channels (rat ASMCs, 10 nM), the “effect … at −20 mV holding voltage” value was “did not enhance KCNQ currents”.
In the case of `NCCc1c[nH]cn1` [histamine], the “effect on ASMC Kv7 currents” value in the series on Kv7 channels (30 μM) is “significantly suppressed”.
As to `CC(C)NCC(O)c1ccc(O)c(O)c1` (stereo not shown) [isoproterenol], the “effect … at −20 mV holding voltage” value with KCNQ channels (rat ASMCs, 100 nM) is “ineffective in enhancement of KCNQ currents”.
On to `O=C1N(c2ccccc2)c2ccccc2C1(Cc1ccncc1)Cc1ccncc1` [linopirdine], for which, in the series on Sprague-Dawley rats, the “mean arterial pressure (MAP)” value is reported as “opposite effects” and the “mesenteric vascular resistance (MVR)” value is recorded as “opposite effects”. Also, the “effect on ASMC Kv7 currents” value in the series with Kv7 channels (celecoxib 10 μM at −20 mV) is given as “complete suppression”.
Consider `CC(=O)OC(C)C[N+](C)(C)C` (stereo not shown) [methacholine], for which the EC50 in series [2] (rat PCLS, 100 nM to 1 μM, Hill fit, n=5, read-out: EC50 of airway constriction) was determined as 248 ± 49 nM. In series [2] (rat PCLS, n=5), the “Hill coefficient of airway constriction” value amounted to 1.6±0.2 and the maximal constriction amounted to 81±7%. Further, in the series with Kv7 channels (100 nM, −20 mV), the “effect on ASMC Kv7 currents” value is on record as “completely suppressed”. Moreover, in the series with KCNQ channels (rat ASMCs, 230 nM, n=7), the “reduction of KCNQ currents at −20 mV” value was determined as 55.1±6.2%.
With `CCOC(=O)Nc1ccc(NCc2ccc(F)cc2)cc1N` [retigabine], in series [6], the “effect on saline control animals” value is reported as “no apparent effect”. Further, in series [2] (10 μM, 230 nM MeCh), the “reduction of MeCh-induced airway constriction” value is “about 31%” and the “relaxation when applied alone” value is recorded as 45.7±4.9%. In addition, the EC50 in [2] (Rattus norvegicus, read-out: EC50 of relaxation of pre-constricted airways) stood at 3600 ± 300 nM. For the same compound, the maximum relaxation in series [2] (pre-constricted thirty minutes with 230 nM MeCh) was found to be 61±9%.
Regarding `CS(=O)(=O)c1ccc(C2=C(c3ccccc3)C(=O)OC2)cc1` [rofecoxib], the “effect on vascular L-type Ca^2+ channels” value in series [1] was “does not exhibit either effect”. Also, the “effect on vascular Kv7 channels” value in the series on vascular Kv7 channels is “does not exhibit either effect”. In series [4], the “risk of cardiovascular (CV) events” value was “significantly increased the risk of cardiovascular (CV) events”.
In the case of zinc pyrithione, in [2] (1 μM, 230 nM MeCh, relative to vehicle), the “reduction of MeCh-induced airway constriction” value is reported as 21%. For the same compound, the “bronchorelaxant action when XE991 is included” value in [2] is listed as “suppressed or prevented”. Moreover, in the series on KCNQ channels (rat ASMCs, 100 nM), the “effect … at −20 mV holding voltage” value is “enhanced”. The “threshold of KCNQ channel activation” value in the series with KCNQ channels (voltage step protocol, retigabine 10 μM, ZnPyr 100 nM) is listed as “shifted the threshold of channel activation to more negative voltages”.
